Assays:
Type in all cases: biochemical
human cyclin D1-CDK4 = human cyclin D1-CDK4 (Homo sapiens, UniProt P11802); experiment: FlashPlate kinase assay, cyclin D1-CDK4, Rb substrate; conditions: recombinant cyclin D1-CDK4, Rb phosphorylation, 1 μM ATP
Method: (§1) To determine inhibition of Cdk4, Cdk2 and Cdk1 activity, kinase assays were conducted using FlashPlate™ assays (NEN™-Life Science Products). FlashPlate assays were performed using recombinant human cyclin B-CDK1, human cyclin E-CDK2 or human cyclin D1-CDK4 complexes. GST-cyclinE (GST-cycE), CDK2, GST-cyclinB (GST-cycB), CDK1, GST-CDK4 and cyclin D1 (cycD1) cDNA clones in baculovirus vectors were provided by Dr. W. Harper at the Baylor College of Medicine, Houston, Tex. Proteins were co-expressed in High Five™ insect cells and the complex was purified on glutathione Sepharose resin (Pharmacia, Piscataway, N.J.) as previously described (Harper, J. W. et al. Cell 1993, 75, 805-816). A 6×-Histidine tagged truncated form of retinoblastoma (Rb) protein (amino acid 386-928) was used as the substrate for the cycD1-CDK4, cycB-CDK1 and the cycE-CDK2 assays (the expression plasmid was provided by Dr. Veronica Sullivan, Department of Molecular Virology, Roche Research Centre, Welwyn Garden City, United Kingdom). The Rb protein is a natural substrate for phosphorylation by CDK4, CDK2 and CDK1 (see Herwig and Strauss Eur. J. Biochem. Vol. 246 (1997) pp. 581-601 and the references cited therein).
(§2) The expression of the 62 Kd protein was under the control of an IPTG inducible promoter in an M15 E. coli strain. Cells were lysed by sonication and purification was carried out by binding lysates at pH 8.0 to a Ni-chelated agarose column pretreated with 1 mM imidazole. The resin was then washed several times with incrementally decreasing pH buffers to pH 6.0, and eluted with 500 mM imidazole. Eluted protein was dialysed against 20 mM HEPES pH 7.5, 30% glycerol, 200 mM NaCl, and 1 mM DTT. Purified Rb fusion protein stocks were quantitated for protein concentration, aliquoted, and stored at −70° C.
(§3) For all three kinase assays reported herein, 96-well FlashPlates were coated with Rb protein at 10 μg/ml, using 100 μl per well. Plates were incubated at 4° C. overnight or at room temperature for 3 hours on a shaker. To control for nonspecific phosphorylation, one row of wells was coated with 100 μl/well coating buffer (20 mM HEPES, 0.2 M NaCl). Plates were then washed twice with wash buffer (0.01% Tween 20 in phosphate-buffered saline). Compounds to be tested (“test compounds”) were added to the wells at 5×final concentration. Reactions were initiated by immediate addition of 40 μl reaction mix (25 mM HEPES, 20 mM MgCl2, 0.002% Tween 20, 2 mM DTT, 1 μM ATP, 4 nM ^33P-ATP) and a sufficient amount of enzyme to give counts that were at least 10-fold above background. Plates were incubated at room temperature on a shaker for 30 minutes. Plates were washed four times with the wash buffer, sealed, and counted on the TopCount scintillation counter (Packard Instrument Co., Downers Grove, Ill.]. The percent inhibition of Rb phosphorylation, which is a measure of the inhibition of CDK activity, was determined according to the following formula: [formula]
(§4) where “test compound” refers to the average counts per minute of the test duplicates, “nonspecific” refers to the average counts per minute when no CyclinD/Cdk4, etc., was added, and “total” refers to the average counts per minute when no compound was added. The IC50 value is the concentration of test compound that reduces by 50% the protein-kinase induced incorporation of the radiolabel under the test conditions described.

human cyclin B-CDK1 = human cyclin B-CDK1 (Homo sapiens, UniProt P06493); experiment: FlashPlate kinase assay, cyclin B-CDK1, Rb substrate; conditions: recombinant cyclin B-CDK1, Rb phosphorylation, 1 μM ATP
Method: as §1, §2, §3, §4

human cyclin E-CDK2 = human cyclin E-CDK2 (Homo sapiens, UniProt P24941); experiment: FlashPlate kinase assay, cyclin E-CDK2, Rb substrate; conditions: recombinant cyclin E-CDK2, Rb phosphorylation, 1 μM ATP
Method: as §1, §2, §3, §4

Sequence of human cyclin B-CDK1 (P06493 whole entry): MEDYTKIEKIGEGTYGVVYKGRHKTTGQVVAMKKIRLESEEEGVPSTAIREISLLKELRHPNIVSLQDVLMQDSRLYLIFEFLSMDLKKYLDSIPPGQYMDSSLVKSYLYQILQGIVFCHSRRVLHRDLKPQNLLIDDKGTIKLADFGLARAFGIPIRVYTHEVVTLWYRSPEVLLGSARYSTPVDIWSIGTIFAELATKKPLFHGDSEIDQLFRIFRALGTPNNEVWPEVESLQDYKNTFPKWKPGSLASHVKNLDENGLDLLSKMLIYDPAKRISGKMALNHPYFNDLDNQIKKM
Sequence of human cyclin B-CDK1 (P14635 whole entry partner): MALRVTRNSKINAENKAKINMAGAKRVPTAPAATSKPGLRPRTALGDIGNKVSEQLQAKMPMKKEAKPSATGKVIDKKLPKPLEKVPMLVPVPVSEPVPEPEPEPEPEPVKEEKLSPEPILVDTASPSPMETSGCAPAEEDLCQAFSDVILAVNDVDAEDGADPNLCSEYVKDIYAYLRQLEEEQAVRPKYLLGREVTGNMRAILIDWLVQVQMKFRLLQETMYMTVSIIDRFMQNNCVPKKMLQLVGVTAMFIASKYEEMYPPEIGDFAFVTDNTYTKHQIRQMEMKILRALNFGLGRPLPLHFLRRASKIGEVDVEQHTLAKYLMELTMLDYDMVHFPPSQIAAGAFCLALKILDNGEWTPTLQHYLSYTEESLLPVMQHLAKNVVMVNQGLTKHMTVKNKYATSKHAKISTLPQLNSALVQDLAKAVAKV
Sequence of human cyclin D1-CDK4 (P11802 whole entry): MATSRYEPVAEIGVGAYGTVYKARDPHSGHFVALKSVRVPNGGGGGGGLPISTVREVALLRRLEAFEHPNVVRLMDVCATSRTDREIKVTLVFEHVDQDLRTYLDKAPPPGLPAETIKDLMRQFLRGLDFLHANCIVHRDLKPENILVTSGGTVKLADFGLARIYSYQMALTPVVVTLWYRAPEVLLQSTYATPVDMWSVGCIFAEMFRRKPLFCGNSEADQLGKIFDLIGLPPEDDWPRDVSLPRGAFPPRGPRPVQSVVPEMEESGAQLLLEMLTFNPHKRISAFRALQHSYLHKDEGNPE
Sequence of human cyclin D1-CDK4 (P24385 whole entry partner): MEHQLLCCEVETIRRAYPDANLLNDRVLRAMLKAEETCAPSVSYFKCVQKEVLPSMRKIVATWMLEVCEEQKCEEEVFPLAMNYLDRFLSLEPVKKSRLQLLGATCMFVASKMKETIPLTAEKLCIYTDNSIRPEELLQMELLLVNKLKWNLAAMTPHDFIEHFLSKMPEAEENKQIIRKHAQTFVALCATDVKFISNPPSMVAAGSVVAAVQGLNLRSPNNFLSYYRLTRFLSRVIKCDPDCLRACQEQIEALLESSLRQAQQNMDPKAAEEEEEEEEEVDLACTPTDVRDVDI

Structure (SMILES) | IC50 (human cyclin D1-CDK4) | IC50 (human cyclin B-CDK1) | IC50 (human cyclin E-CDK2)
Nc1nc(Nc2ccc(OC[C@@H]3CCCN3)cc2)sc1C(=O)c1cccc(F)c1 [Example 3, [4-Amino-2-[4-(pyrrolidin-2-ylmethoxy)-phenylamino]-thiazol-5-yl]-(3-fluoro-phenyl)-methanone] | 38 nM | 440 nM | 1170 nM
CN(C)C(C)(C)COc1ccc(Nc2nc(N)c(C(=O)c3cccc(F)c3)s2)cc1 [Example 39, [4-Amino-2-[4-(2-dimethylamino-2-methyl-propoxy)-phenylamino]-thiazol-5-yl]-(3-fluoro-phenyl)-methanone] | 92 nM | 613 nM | 850 nM
Nc1nc(Nc2ccc(OC3CCCNC3)cc2)sc1C(=O)c1cccc(F)c1 (stereo not drawn) [Example 46, [4-Amino-2-[4-(piperidin-3-yloxy)-phenylamino]-thiazol-5-yl]-(3-fluoro-phenyl)-methanone] | 65 nM | 416 nM | 1140 nM
Nc1nc(Nc2ccc(OCCN3CCOCC3)cc2)sc1C(=O)c1cccc(F)c1 [Example 47, [4-Amino-2-[4-(2-morpholin-4-yl-ethoxy)-phenylamino]-thiazol-5-yl]-(3-fluoro-phenyl)-methanone] | 73 nM | 196 nM | 1080 nM
COc1ccc(C(=O)c2sc(Nc3ccc(OCCN4CCCC4)cc3)nc2N)cc1[N+](=O)[O-] [Example 48, [4-Amino-2-[4-(2-pyrrolidin-1-yl-ethoxy)-phenylamino]-thiazol-5-yl]-(4-methoxy-3-nitro-phenyl)-methanone] | 85 nM | 1550 nM | 3160 nM
COc1ccc(C(=O)c2sc(Nc3ccc(OCCN(C)C)cc3)nc2N)cc1[N+](=O)[O-] [Example 49, [4-Amino-2-[4-(2-dimethylamino-ethoxy)-phenylamino]-thiazol-5-yl]-(4-methoxy-3-nitro-phenyl)-methanone] | 88 nM | 2390 nM | 4300 nM
Nc1nc(Nc2ccc(OCCN3CCOCC3)cc2)sc1C(=O)c1ccc2c(c1)OCCO2 [Example 55, [4-Amino-2-[4-(2-morpholin-4-yl-ethoxy)-phenylamino]-thiazol-5-yl]-(2,3-dihydro-benzo[1,4]dioxin-6-yl)-methanone] | 85 nM | 610 nM | 3200 nM
Nc1nc(Nc2ccc(OCCN3CCOCC3)cc2)sc1C(=O)c1ccc2c(c1)OCO2 [Example 56, [4-Amino-2-[4-(2-morpholin-4-yl-ethoxy)-phenylamino]-thiazol-5-yl]-benzo[1,3]dioxol-5-yl-methanone] | 29 nM | 155 nM | 3020 nM
CN(C)CCOc1ccc(Nc2nc(N)c(C(=O)c3ccc4c(c3)OCO4)s2)cc1 [Example 59, [4-Amino-2-[4-(2-dimethylamino-ethoxy)-phenylamino]-thiazol-5-yl]-benzo[1,3]dioxol-5-yl-methanone] | 63 nM | 434 nM | 5600 nM
CN(C)CCOc1ccc(Nc2nc(N)c(C(=O)c3cccc(C#N)c3)s2)cc1 [Example 60, 3-[4-Amino-2-[4-(2-dimethylamino-ethoxy)-phenylamino]-thiazole-5-carbonyl]-benzonitrile] | 79 nM | 847 nM | 1700 nM
Cc1ccc(C(=O)c2sc(Nc3ccc(OCCN(C)C)cc3)nc2N)cc1F [Example 73, [4-Amino-2-[4-(2-dimethylamino-ethoxy)-phenylamino]-thiazol-5-yl]-(3-fluoro-4-methyl-phenyl)-methanone] | 101 nM | 1170 nM | 5990 nM
Cc1ccc(C(=O)c2sc(Nc3ccc(OC[C@@H](C)N(C)C)cc3)nc2N)cc1F [Example 74, (R)-[4-Amino-2-[4-(2-dimethylamino-propoxy)-phenylamino]-thiazol-5-yl]-(3-fluoro-4-methyl-phenyl)-methanone] | 92 nM | 869 nM | 5130 nM
Cc1ccc(C(=O)c2sc(Nc3ccc(OCC(C)(C)N(C)C)cc3)nc2N)cc1F [Example 75, [4-Amino-2-[4-(2-dimethylamino-2-methyl-propoxy)-phenylamino]-thiazol-5-yl]-(3-fluoro-4-methyl-phenyl)-methanone] | 97 nM | 578 nM | 4240 nM
CCN1CCCC(Oc2ccc(Nc3nc(N)c(C(=O)c4ccc(O)c(F)c4)s3)cc2)C1 (stereo not drawn) [Example 82, [4-Amino-2-[4-(1-ethyl-piperidin-3-yloxy)-phenylamino]-thiazol-5-yl]-(3-fluoro-4-hydroxy-phenyl)-methanone] | 71 nM | 1020 nM | 1500 nM
CCN1CCC(Oc2ccc(Nc3nc(N)c(C(=O)c4ccc(C)c(F)c4)s3)cc2)C1 (stereo not drawn) [Example 86, [4-Amino-2-[4-(1-ethyl-pyrrolidin-3-yloxy)-phenylamino]-thiazol-5-yl]-(3-fluoro-4-methyl-phenyl)-methanone] | 97 nM | 977 nM | 1640 nM
CCN1CCCC(Oc2ccc(Nc3nc(N)c(C(=O)c4ccc(C)c(F)c4)s3)cc2)C1 (stereo not drawn) [Example 87, [4-Amino-2-[4-(1-ethyl-piperidin-3-yloxy)-phenylamino]-thiazol-5-yl]-(3-fluoro-4-methyl-phenyl)-methanone] | 74 nM | 451 nM | 957 nM
CCCc1cc(C(=O)c2sc(Nc3ccc(OC4CCNC4)cc3)nc2N)ccc1O (stereo not drawn) [Example 90, [4-Amino-2-[4-(pyrrolidin-3-yloxy)-phenylamino]-thiazol-5-yl]-(4-hydroxy-3-propyl-phenyl)-methanone; Compound With Acetic Acid] | 43 nM | 228 nM | 130 nM
Cc1cccc(C(=O)c2sc(Nc3ccc(OC4CCNC4)cc3)nc2N)c1 (stereo not drawn) [Example 91, [4-Amino-2-[4-(pyrrolidin-3-yloxy)-phenylamino]-thiazol-5-yl]-m-tolyl-methanone; Compound With Acetic Acid] | 67 nM | 471 nM | 817 nM
Cc1ccc(C(=O)c2sc(Nc3ccc(OC4CCNC4)cc3)nc2N)cc1F (stereo not drawn) [Example 94, [4-Amino-2-[4-(pyrrolidin-3-yloxy)-phenylamino]-thiazol-5-yl]-(3-fluoro-4-methyl-phenyl)-methanone; Compound With Acetic Acid] | 86 nM | 682 nM | 2040 nM
COc1ccc(C(=O)c2sc(Nc3ccc(OC4CCCNC4)cc3)nc2N)cc1F (stereo not drawn) [Example 97, [4-Amino-2-[4-(piperidin-3-yloxy)-phenylamino]-thiazol-5-yl]-(3-fluoro-4-methoxy-phenyl)-methanone] | 96 nM | 1720 nM | 3740 nM
CCN(CC)CCOc1ccc(Nc2nc(N)c(C(=O)c3ccc4c(c3)C(C)CO4)s2)cc1 (stereo not drawn) [Example 139, [4-Amino-2-[4-(2-diethylamino-ethoxy)-phenylamino]-thiazol-5-yl]-(3-methyl-2,3-dihydro-benzofuran-5-yl)-methanone] | 70 nM | – | –
CCN(CC)CCOc1ccc(Nc2nc(N)c(C(=O)c3ccc4c(c3)CCO4)s2)cc1 [Example 142, [4-Amino-2-[4-(2-diethylamino-ethoxy)-phenylamino]-thiazol-5-yl]-(2,3-dihydro-benzofuran-5-yl)-methanone] | 100 nM | 6430 nM | –

— patent US6818663B2, “Diaminothiazoles” (Hoffmann-La Roches, priority 2002, dated 2004)
